Columns and labels:
Format in all cases: functional, cell-based
MCF7 = assay: Cytotoxicity against human MCF7 cells by MTT assay
NCI-H460 = assay: Cytotoxicity against human NCI-H460 cells by MTT assay
SF-268 = assay: Cytotoxicity against human SF-268 cells by MTT assay

Compound: O=C1C(C2(C3(C4=Nc5ccccc5C4=O)Nc4ccccc4C3=O)Nc3ccccc3C2=O)=Nc2ccccc21 (stereo not drawn) [CEPHALINONE D]
- IC50 (MCF7): 7.57 µM
- IC50 (NCI-H460): 7.8 µM
- IC50 (SF-268): 12.2 µM

Source: ChEMBL document CHEMBL1158083, “Indole alkaloids from Cephalanceropsis gracilis” (J Nat Prod, 2006)
